pKi: −log10 of the molar value. Like-named read-outs stand apart in the source and are kept apart here.

This experiment deals with T1, C5a receptor (Homo sapiens, UniProt P21730).
T1 construct: endogenous in cells; host or cells: U937 cells differentiated with 1 mM dibutyryl cAMP
T1 sequence (P21730 1-350): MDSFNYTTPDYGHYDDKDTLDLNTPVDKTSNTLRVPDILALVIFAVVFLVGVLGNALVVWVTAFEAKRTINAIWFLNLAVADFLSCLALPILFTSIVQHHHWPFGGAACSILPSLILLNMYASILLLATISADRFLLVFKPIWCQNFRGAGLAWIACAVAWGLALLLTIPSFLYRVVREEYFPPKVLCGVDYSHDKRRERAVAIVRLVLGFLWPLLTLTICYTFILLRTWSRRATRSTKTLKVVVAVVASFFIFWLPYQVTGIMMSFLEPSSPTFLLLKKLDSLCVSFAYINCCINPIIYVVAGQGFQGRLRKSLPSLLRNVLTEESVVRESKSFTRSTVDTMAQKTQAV
Put plainly: standard assay of C5a receptor mediated calcium mobilization. The following applies: asterisk = tested in C5a receptor mediated calcium mobilization assay, read-out: Ca2+ Mob. In kind it is cell-based. The procedure, abridged:
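U937 cells differentiated 48 hrs with 1 mM dibutyryl cAMP, loaded with Fluo-3 (10 μg/mL) and read by FLIPR fluorescence (ex 480/em 530). For antagonism, cells preincubated 1 h with 1 μM compound before 0.3 nM human recombinant C5a; activity scored as fold decrease in response versus C5a alone.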
In general terms: A change in cytosolic calcium serves as a functional read-out for many receptors and channels.

Take `O=C(c1ccccc1-c1ccsc1)N(Cc1ccccc1)Cc1ccccc1` [compound 41, N,N-dibenzyl-2-thien-3-ylbenzamide]: the pKi (Table I) was above 6.00.
Turning to `Cc1ccc(CN(C(=O)c2ccccc2-c2ccccc2F)C2Cc3ccccc3C2)cc1` [compound 90, N-(indan-2-yl)-2′-fluoro-N-(4-methylbenzyl)-1,1′-biphenyl-2-carboxamide], the pKi (Table I) is above 6.00.
Regarding `Cc1cccc(CN(C(=O)c2ccccc2-c2ccccc2F)C2Cc3ccccc3C2)c1` [compound 99, N-(indan-2-yl)-2′-fluoro-N-(3-methylbenzyl)-1,1′-biphenyl-2-carboxamide], where the note is “Table I”, the pKi was above 6.00.
Regarding `Cc1ccc(-c2ccccc2C(=O)N(Cc2ccccc2)Cc2ccc(OC(F)F)cc2)s1` [compound 148, N-benzyl-N-[4-(difluoromethoxy)benzyl]-2-(5-methylthien-2-yl)benzamide], the pKi (Table I) is above 6.00.
In the case of `COc1cc(CN(C(=O)c2ccccc2-c2ccsc2)C2Cc3ccccc3C2)cc(OC)c1` [compound 84, N-(indan-2-yl)-N-(3,5-dimethoxybenzyl)-2-thien-3-ylbenzamide], the pKi (Table I) was above 6.00.
Still for that read-out and setting: in the case of `COc1cccc(CN(C(=O)c2cc(OC)ccc2-c2ccc(C)s2)C2Cc3ccccc3C2)c1` [compound 102, N-(indan-2-yl)-5-methoxy-N-(3-methoxybenzyl)-2-(5-methylthien-2-yl)benzamide] it was above 6.00; in that of `COc1ccc(-c2ccccc2C(=O)N(Cc2ccccc2)Cc2ccccc2)cc1` [compound 44, N,N-dibenzyl-4′-methoxy-1,1′-biphenyl-2-carboxamide], above 6.00.
`O=C(c1ccccc1-c1ccccc1F)N(Cc1ccc(F)cc1)C1Cc2ccccc2C1` [compound 93, N-(indan-2-yl)-2′-fluoro-N-(4-fluorobenzyl)-1,1′-biphenyl-2-carboxamide]: the pKi (Table I) was above 6.00.
For the molecule `O=C(c1cc(Cl)ccc1-c1ccccc1)N(Cc1ccccc1)Cc1ccc2c(c1)OCC2` [compound 144, N-benzyl-4-chloro-N-(2,3-dihydro-1-benzofuran-6-ylmethyl)-1,1′-biphenyl-2-carboxamide], the pKi (Table I) was above 6.00.
For `O=C(c1c(-c2ccccc2)ccc2ccccc12)N(Cc1ccccc1F)C1Cc2ccccc2C1` [compound 239, 2-Phenyl-naphthalene-1-carboxylic acid (2-fluoro-benzyl)-indan-2-yl-amide], the pKi (Table III) was above 6.00.
For the molecule `COc1cccc(CN(C(=O)c2cc(OC)ccc2-c2ccccc2)C2Cc3ccccc3C2)c1` [compound 103, N-(indan-2-yl)-4-methoxy-N-(3-methoxybenzyl)-1,1′-biphenyl-2-carboxamide], under “Table I”, the pKi is above 6.00.
The same measure, in the same setting: in the case of `COc1ccc(-c2ccccc2)c(C(=O)N(Cc2cccc(F)c2)C2Cc3ccccc3C2)c1` [compound 109, N-(indan-2-yl)-N-(3-fluorobenzyl)-4-methoxy-1,1′-biphenyl-2-carboxamide] it was above 6.00; in that of `O=C(c1cc(Cl)ccc1-c1ccccc1)N(Cc1ccccc1)C1Cc2ccccc2C1` [compound 117, N-benzyl-4-chloro-N-(indan-2-yl)-1,1′-biphenyl-2-carboxamide], above 6.00; in that of `COc1ccc(-c2ccccc2C(=O)N(Cc2ccccc2)Cc2ccccc2)c(OC)c1` [compound 45, N,N-dibenzyl-2′,4′-dimethoxy-1,1′-biphenyl-2-carboxamide], above 6.00.
Consider `Cc1cccc(CN(C(=O)c2c(C)ccc3ccccc23)C2Cc3ccccc3C2)c1` [compound 230, 2-Methyl-naphthalene-1-carboxylic acid (3-methyl-benzyl)-indan-2-yl-amide], for which the pKi (Table III) is above 6.00.
In the case of `Cc1cccc(-c2ccccc2C(=O)N(Cc2ccccc2)Cc2ccccc2)c1` [compound 54, N,N-dibenzyl-3′-methyl-1,1′-biphenyl-2-carboxamide], for the setting “Table I”, the pKi was above 6.00.
`O=C(c1cc(Cl)ccc1-c1ccccc1)N(Cc1ccc2c(c1)OCO2)C1Cc2ccccc2C1` [compound 139, N-(1,3-benzodioxol-5-ylmethyl)-4-chloro-N-(indan-2-yl)-1,1′-biphenyl-2-carboxamide]: the pKi (Table I) was above 6.00.
On to `Cc1cccc(CN(C(=O)c2cc(Cl)ccc2-c2ccccc2)C2Cc3ccccc3C2)c1` [compound 132, 4-chloro-N-(indan-2-yl)-N-(3-methylbenzyl)-1,1′-biphenyl-2-carboxamide], for which, for the setting “Table I”, the pKi is above 6.00.
On to `O=C(c1c(O)cccc1-c1ccccc1)N(Cc1ccccc1)C1Cc2ccccc2C1` [compound 69, N-benzyl-N-(indan-2-yl)-3-hydroxy-1,1′-biphenyl-2-carboxamide], for which the pKi (Table I) is above 6.00.
`O=C(c1ccccc1-c1ccccc1)N(Cc1ccc(F)c(F)c1)C1Cc2ccccc2C1` [compound 80, N-(3,4-difluorobenzyl)-N-(indan-2-yl)-1,1′-biphenyl-2-carboxamide]: the pKi (Table I) was above 6.00.
For `O=C(c1ccccc1-c1ccsc1)N(Cc1ccc2ccccc2c1)C1Cc2ccccc2C1` [compound 86, N-(indan-2-yl)-N-(2-naphthylmethyl)-2-thien-3-ylbenzamide], the pKi (Table I) was above 6.00.
In the case of `O=C(c1ccccc1-c1ccccc1Cl)N(Cc1ccccc1)Cc1ccccc1` [compound 48, N,N-dibenzyl-2′-chloro-1,1′-biphenyl-2-carboxamide], the pKi (Table I) was above 6.00.
As to `O=C(c1c(F)cccc1-c1ccccc1)N(Cc1ccccc1)C1Cc2ccccc2C1` [compound 112, N-benzyl-N-(indan-2-yl)-3-fluoro-1,1′-biphenyl-2-carboxamide], the pKi (Table I) is above 6.00.
The same measure, in the same setting: under `COc1cccc(-c2ccccc2C(=O)N(Cc2ccc3c(c2)OCO3)C2Cc3ccccc3C2)c1` [compound 64, N-(1,3-benzodioxol-5-ylmethyl)-N-(indan-2-yl)-3′-methoxy-1,1′-biphenyl-2-carboxamide] stands above 6.00.

The values above are taken from patent US7291621B2, “Substituted biaryl amides C5a receptor modulators” (Neurogen Corporation, priority 2002, dated 2007).
